The values below come from patent US20260347399A1, “BRAIN PENETRATING PEPTIDES AND METHODS OF USE” (priority 2022, published 2026).

For one data set, the system named is mouse brain. In words: Peptide-phage biodistribution after i.v. injection. Type of data set: in vivo. On the procedure:
For titering-based biodistribution studies, nucleotide sequences coding for peptides of interest were cloned into T7 phage genomic DNA to be expressed on the phage surface as C-terminal fusions to capsid protein. The cloning was performed using complementary oligonucleotides, the phage clones were amplified, and purified as described in (Põšnograjeva, et al., 2022). 5×10^9 pfu of peptide-phage clone was injected i.v. into male Balb/C mice or 5×10^10 pfu of phage was injected into female Sprague-Dawley rats (n=3). 60 min later, the animals were anesthetized and perfused with PBS. The tissues were collected, homogenized, and the amount of phage in tissue lysates was determined by titering using E. coli strain BLT5615.
A complete listing of peptides that were identified from Ion Torrent high throughput sequencing from bio-panning Round 5 is set forth in Table 1B.
The peptide-phage was injected i.v. and following 1 h circulation, the mice were perfused, brain and control organs were collected and phage titer in each tissue was determined. Insertless T7 phage was used as a negative control and a phage displaying BBB penetrating peptide Angiopep-2 (TFFYGGSRGKRNNFKTEEY; SEQ ID NO:97) was used for comparison. Cerepep phage achieved approximately 300-fold higher accumulation in mouse brain compared to control and Angiopep-2 phages (FIG. 2A; Peptide-phage accumulation in the brain. 5×10^9 pfu of phage was injected i.v. and following 1 h circulation mice were perfused with PBS. The amount of phage accumulated in the brain was determined by titering). To assess the brain distribution of […] (SEQ ID NO:9), the mouse brain was dissected to separate the olfactory bulbs, cerebellum, brain stem and the hemispheres before determining the titer in the tissue.
The brain selectivity of SRRVISRAKLAAAL (SEQ ID NO:9) phage following a systemic administration was studied in mice and rats by determining the titer of […] (SEQ ID NO:9) and control phage in multiple control tissues.

A further data set concerns WT GBM cells. In words: Proximity labelling with peptide-HRP complex and mass spectrometry. It counts as cell-based, mouse. The following applies: WT GBM and Neuro2A proximity labelling, mass spectrometry. On the procedure:
To assess the efficiency and specificity of proximity labelling, WT GBM cells were cultured in 24-well plates on polylysine coated glass coverslips until 80-90% confluency. Cerepep and horseradish peroxidase complex (CP-HRP) was prepared by conjugating biotinylated Cerepep to streptavidin-HRP. Control biotin-HRP complex was prepared by conjugating biotin to streptavidin-HRP. 4 μM CP-HRP or biot-HRP in DPBS was added to the cells and incubated at 37 °C for 1 h. The cells were washed with DPBS. 500 μM biotin-phenol (Iris Biotech #41994-02-9) in DPBS was added to the cells and incubated at 37 °C for 30 min. To start the reaction, H2O2 with the final concentration of 1 mM was added to the cells and incubated for 2 min at RT. The reaction was stopped by washing with 100 U/ml catalase in DPBS. Cells were fixed in 4% PFA and biotinylated proteins were detected with Streptavidin-Dylight 550 conjugate (1:500 in DPBS). Nuclei were stained with DAPI and the biotinylation of cells was analyzed with confocal microscopy.
To biotinylate the receptor of Cerepep peptide to be detected with mass spectrometry, the proximity labelling was performed on WT GBM and Neuro2A cells in suspension following the same protocol as with attached cells. […]
Biotin was detected with Streptavidin DyLight550. The WT GBM cells were analyzed with confocal microscopy. […]

For data set [1], the system named is GBM and normal brain parenchyma. Briefly: Synthetic peptide homing in glioma-bearing mice (IHC). Type of data set: in vivo, mouse. Particulars: synthetic peptide i.v., 1 h. On the procedure:
CVGTNCY (SEQ ID NO:2) peptide-phage or control phage were injected iv into mice, after one hour circulation animals were perfused with 20 ml PBS, organs were collected, weighed, and dropped to 1% NP40-LB solution. Organs were homogenized and titer of each tissue was determined. FAM-labeled peptides (2 mM of peptide in PBS) were injected intravenously and 3 hours later the animals were perfused with 20 mL of PBS. The organs were excised, snap-frozen in the vapor of liquid nitrogen, and stored at −80 °C. For confocal microscopy, the tissues were sectioned at 15 μm and stained with antibodies and DAPI.
Cryosections (15 μm) on Superfrost Plus slides were fixed in cold methanol, washed in PBS, treated with 3% hydrogen peroxide, and blocked in PBS containing 0.05% Tween-20, 5% BSA, and 5% goat serum (GE Healthcare, UK) for 1 h. The sections were immunostained with rabbit anti-fluorescein (cat #A889, Thermo Fisher Scientific, MA, USA) antibody overnight at +4 °C. […] Sections were imaged with Leica Aperio VERSA microscope slide scanner. Imaged were processed with Aperio Image Scope (v12.4.3.5008).
The synthetic CVGTNCY (SEQ ID NO:2) peptide or scrambled CVGTNCY (SEQ ID NO:2) homing in WT-GBM and VEGFko GBM-bearing mice was analyzed after i.v. injection and perfusion of the animals. Cryosections of glioma-bearing brains were stained with anti-FAM antibody and tyramide amplification kit to enhance the signal of the peptide.
To assess homing of CVG peptide in glioblastoma, CVGTNCY (SEQ ID NO:2) peptide-phage was injected iv into mice bearing either WT-GBM, VEGFko, U87MG or NCH421k GBM, and to mice without a tumor. At one hour time point mice were perfused, brains and control organs collected and titered. […] (FIGS. 17A-17B) Distribution of CVG peptide in GBM and brain parenchyma was also assessed. CVGTNCY (SEQ ID NO:2) peptide or its scrambled version (CVYTCNG; (SEQ ID NO: 68)) was injected iv into glioma bearing mice, after 1 hour circulation mice were perfused and tissues of interest snap-frozen in liquid nitrogen.

Setting [2] is: WT-GBM and VEGFko GBM-bearing mice.

Ends that are not written are not given here.

As for “SRRVISRAKLAAAL [Cerepep, SRRVISRAKLAAAL]”, in the data set with mouse brain (mouse, in vivo), the homing preference entry is “homes preferentially to the eyes/brain/CNS”. Moreover, the “accumulation in mouse brain, fold over Angiopep-2 phage” value with mouse brain (peptide-phage 5×10^9 pfu i.v., 1 h, vs Angiopep-2 phage) is given as “approximately 300 fold”. In the data set with mouse brain (peptide-phage 5×10^9 pfu i.v., 1 h, vs insertless control phage), the “accumulation in mouse brain, fold over control phage” value is listed as “approximately 300 fold”. Also, in the data set with mouse brain (peptide-phage 5×10^9 pfu i.v., 1 h circulation), the “accumulation in the brain, shorter versions of Pep1” value is on record as “shortest peptide still achieving a high accumulation in the brain”. For the same substance, the “brain selectivity (titer in brain vs control tissues)” value with mouse brain (peptide-phage i.v., 1 h, mice) was “highest accumulation in the brain and low accumulation in all other tested tissues”. In addition, the “accumulation in brain regions and spinal cord” value in the data set with mouse brain (peptide-phage i.v., 1 h, olfactory bulbs, cerebellum, brain stem, hemispheres, spinal cord, compared to control phage) is listed as “high accumulation in all tested brain regions as well as in the spinal cord”. Besides, the “most probable receptor candidate” value in the data set on WT GBM cells is “LRP1 was considered the most probable candidate”.
In the case of CVGTNCY, in data set [1], the “cell type targeted in normal brain” value is given as “binding to the cortical neurons in the normal brain”. Moreover, the “detection in brain parenchyma” value in data set [1] (setting [2]) was “detected in the brain parenchyma”; in data set [1] (WT-GBM and VEGFko GBM-bearing mice, listed as CVG) it was “homed to brain parenchyma and GBM”. In data set [1] (setting [2]), the “detection/targeting in GBM” value is given as “activated microglia in GBM”.
